Results reported in patent US7473418B2, “Pan cancer oncolytic vectors and methods of use thereof” (Cell Genesys, Inc., priority 2004, dated 2009).

Columns and labels:
Hep3B cells = assay: In vitro combination of CG5757 and chemotherapeutic agents; format: cell-based, human
Experimental: (§1) Potential synergism between existing chemotherapeutic agents and the replication competent vectors of the present invention was investigated. Co-application of CG5757 with a variety of known chemotherapeutic agents was evaluated using an in vitro cell assay. A variety of known chemotherapeutic agents were tested in combination with CG5757 for their in vitro cytotoxic effect on Hep3B and LNCaP cells.

LNCaP cells = assay: as above; format: cell-based, human
Experimental: as §1

COc1cccc2c1C(=O)c1c(O)c3c(c(O)c1C2=O)C[C@@](O)(C(=O)CO)C[C@@H]3O[C@H]1C[C@H](N)[C@H](O)[C@H](C)O1 [doxorubicin]
combination effect with CG5757 (Hep3B cells): potential synergistic cytotoxicity
cytotoxicity (Hep3B cells; 5 ng/ml, agent alone): did not generate cytotoxicity

CC(=O)O[C@H]1C(=O)[C@@]2(C)[C@H]([C@H](OC(=O)c3ccccc3)[C@]3(O)C[C@H](OC(=O)[C@H](O)[C@@H](NC(=O)c4ccccc4)c4ccccc4)C(C)=C1C3(C)C)[C@]1(OC(C)=O)CO[C@@H]1C[C@@H]2O [Taxol]
combination effect with CG5757 (LNCaP cells): potential synergistic cytotoxicity
